Data from patent US11098058B2, “Bicyclic ketone compounds and methods of use thereof” (Genentech, Inc., priority 2017, dated 2021).
pKi: −log10 of the molar value.

Target: human RIP1 kinase domain (2-375) (Homo sapiens (Human), UniProt Q13546)
Experiment: biochemical
Conditions: 50 nM enzyme, 50 μM ATP, 2 hours incubation
[1] = RIP1 kinase inhibition, tight-binding apparent Ki
[2] = tight-binding apparent inhibition constant (Ki app, Morrison equation)

Chain of human RIP1 kinase domain (2-375) (Q13546 2-375): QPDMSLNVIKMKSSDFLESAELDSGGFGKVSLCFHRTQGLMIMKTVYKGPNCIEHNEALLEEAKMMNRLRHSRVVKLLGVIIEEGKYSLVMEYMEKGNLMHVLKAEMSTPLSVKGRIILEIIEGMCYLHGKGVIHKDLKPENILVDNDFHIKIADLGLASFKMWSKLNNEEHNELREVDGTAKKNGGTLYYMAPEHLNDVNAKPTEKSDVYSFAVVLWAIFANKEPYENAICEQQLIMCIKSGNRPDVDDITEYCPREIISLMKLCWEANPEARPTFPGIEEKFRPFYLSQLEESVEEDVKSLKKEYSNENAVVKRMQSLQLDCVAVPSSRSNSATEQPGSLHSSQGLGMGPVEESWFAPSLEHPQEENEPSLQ

Compound: C[C@H]1C[C@@H]1C(=O)c1nc2n(n1)[C@H](c1ccccc1)C[C@@H]2F (mixture of isomers) [Example 75, [(5S,7S)-7-fluoro-5-phenyl-6,7-dihydro-5H-pyrrolo[1,2-b][1,2,4]triazol-2-yl]-[rac-(1S,2S)-2-methylcyclopropyl]methanone]
- pKi [1]: 8.43

Compound: N#C[C@@H]1C[C@H]1C(=O)c1nc2n(n1)[C@H](c1ccccc1)C[C@@H]2F (mixture of isomers) [Example 105, rac-(1R,2R)-2-[(5S,7S)-7-fluoro-5-phenyl-6,7-dihydro-5H-pyrrolo[1,2-b][1,2,4]triazole-2-carbonyl]cyclopropanecarbonitrile]
- pKi [1]: 7.89

Compound: O=C(Cc1ccccc1)c1nc2n(n1)[C@H](c1ccccc1)C[C@@H]2F (racemic) [Example 7, 2-phenyl-1-[rac-(5S,7S)-7-fluoro-5-phenyl-6,7-dihydro-5H-pyrrolo[1,2-b][1,2,4]triazol-2-yl]ethanone]
- pKi [2]: 7.91

Compound: O=C(c1ccccc1)c1nc2n(n1)[C@H](c1ccccc1)C[C@@H]2F (racemic) [Example 12, phenyl-[rac-(5S,7S)-7-fluoro-5-phenyl-6,7-dihydro-5H-pyrrolo[1,2-b][1,2,4]triazol-2-yl]methanone]
- pKi [2]: 7.67

Compound: CCC(=O)c1nc2n(n1)[C@@H](c1ccccc1)C[C@@H]2F (racemic) [Example 13, 1-[rac-(5R,7S)-7-fluoro-5-phenyl-6,7-dihydro-5H-pyrrolo[1,2-b][1,2,4]triazol-2-yl]propan-1-one]
- pKi [2]: 6.71

Compound: O=C(c1nc2n(n1)[C@H](c1ccccc1)C[C@@H]2F)C1(C(F)(F)F)CC1 (racemic) [Example 14, (rac-(5S,7S)-7-fluoro-5-phenyl-6,7-dihydro-5H-pyrrolo[1,2-b][1,2,4]triazol-2-yl)-[1-(trifluoromethyl)cyclopropyl]methanone]
- pKi [2]: 7.95

Compound: CC1(C(=O)c2nc3n(n2)[C@H](c2ccccc2)C[C@@H]3F)COC1 (racemic) [Example 15, (rac-(5S,7S)-7-fluoro-5-phenyl-6,7-dihydro-5H-pyrrolo[1,2-b][1,2,4]triazol-2-yl)-(3-methyloxetan-3-yl)methanone]
- pKi [2]: 7.52

Compound: O=C(c1nc2n(n1)[C@@H](c1ccccc1)C[C@@H]2F)C1CC1 (racemic) [Example 18, cyclopropyl-[rac-(5R,7S)-7-fluoro-5-phenyl-6,7-dihydro-5H-pyrrolo[1,2-b][1,2,4]triazol-2-yl]methanone]
- pKi [2]: 6.63

Compound: CC(C)(C#N)C(=O)c1nc2n(n1)[C@H](c1ccccc1)C[C@@H]2F (racemic) [Example 22, 3-(rac-(5S,7S)-7-fluoro-5-phenyl-6,7-dihydro-5H-pyrrolo[1,2-b][1,2,4]triazol-2-yl)-2,2-dimethyl-3-oxo-propanenitrile]
- pKi [2]: 7.48

Compound: CC1(C(=O)c2nc3n(n2)[C@H](c2ccccc2)C[C@@H]3F)CC1 (racemic) [Example 26, (rac-(5S,7S)-7-fluoro-5-phenyl-6,7-dihydro-5H-pyrrolo[1,2-b][1,2,4]triazol-2-yl)-(1-methylcyclopropyl)methanone]
- pKi [2]: 7.42

Compound: O=C(CC(F)(F)F)c1nc2n(n1)[C@@H](c1ccccc1)C[C@H]2F (racemic) [Example 29, 3,3,3-trifluoro-1-[rac-(5R,7R)-7-fluoro-5-phenyl-6,7-dihydro-5H-pyrrolo[1,2-b][1,2,4]triazol-2-yl]propan-1-one]
- pKi [2]: 6.87

Compound: CCC(=O)c1nc2n(n1)[C@H](c1ccccc1F)CC2 (racemic) [Example 31, 1-[rac-(5S)-5-(2-fluorophenyl)-6,7-dihydro-5H-pyrrolo[1,2-b][1,2,4]triazol-2-yl]propan-1-one]
- pKi [2]: 8.13

Compound: CCC(=O)c1nc2n(n1)[C@H](c1ccccc1)[C@@H](F)C2 (racemic) [Example 32, 1-[rac-(5R,6S)-6-fluoro-5-phenyl-6,7-dihydro-5H-pyrrolo[1,2-b][1,2,4]triazol-2-yl]propan-1-one]
- pKi [2]: 6.13

Compound: O=C(c1ccccn1)c1nc2n(n1)[C@H](c1ccccc1)C[C@@H]2F (racemic) [Example 33, (rac-(5S,7S)-7-fluoro-5-phenyl-6,7-dihydro-5H-pyrrolo[1,2-b][1,2,4]triazol-2-yl)-(2-pyridyl)methanone]
- pKi [2]: 5.63

Compound: O=C(c1nc2n(n1)[C@H](c1ccccc1)C[C@@H]2F)C1CCCC1 (racemic) [Example 36, cyclopentyl--(rac-(5S,7S)-7-fluoro-5-phenyl-6,7-dihydro-5H-pyrrolo[1,2-b][1,2,4]triazol-2-yl)methanone]
- pKi [2]: 7.73

Compound: O=C(c1nc2n(n1)[C@H](c1ccccc1)C[C@@H]2F)c1cccs1 (racemic) [Example 41, (rac-(5S,7S)-7-fluoro-5-phenyl-6,7-dihydro-5H-pyrrolo[1,2-b][1,2,4]triazol-2-yl)-(2-thienyl)methanone]
- pKi [2]: 7.57

Compound: O=C(c1nc2n(n1)[C@@H](c1ccccc1)C[C@H]2F)C1CCC1 (racemic) [Example 43, cyclobutyl-[rac-(5R,7R)-7-fluoro-5-phenyl-6,7-dihydro-5H-pyrrolo[1,2-b][1,2,4]triazol-2-yl]methanone]
- pKi [2]: 7.92

Compound: CCC(=O)c1nc2n(n1)[C@H](c1ccccc1)C[C@@H]2F (racemic) [Example 47, 1-[rac-(5S,7S)-7-fluoro-5-phenyl-6,7-dihydro-5H-pyrrolo[1,2-b][1,2,4]triazol-2-yl]propan-1-one]
- pKi [2]: 8.45

Compound: CC(=O)c1nc2n(n1)[C@@H](c1ccccc1)C[C@H]2F (racemic) [Example 50, 1-[rac-(5R,7R)-7-fluoro-5-phenyl-6,7-dihydro-5H-pyrrolo[1,2-b][1,2,4]triazol-2-yl]ethanone]
- pKi [2]: 7.12

Compound: O=C(c1nc2n(n1)[C@H](c1ccccc1)C[C@@H]2F)C1(F)CC1 (racemic) [Example 53, (1-fluorocyclopropyl)-(rac-(5S,7S)-7-fluoro-5-phenyl-6,7-dihydro-5H-pyrrolo[1,2-b][1,2,4]triazol-2-yl)methanone]
- pKi [2]: 7.65

Compound: O=C(c1nc2n(n1)[C@H](c1ccccc1)C[C@@H]2F)C1C2COCC21 (mixture of isomers) [Example 56, 3-oxabicyclo[3.1.0]hexan-6-yl-[rac-(5S,7S)-7-fluoro-5-phenyl-6,7-dihydro-5H-pyrrolo[1,2-b][1,2,4]triazol-2-yl]methanone]
- pKi [2]: 6.66

Compound: O=C(c1nc2n(n1)[C@H](c1ccccc1)C[C@@H]2F)C1COC1 (racemic) [Example 57, oxetan-3-yl-[rac-(5S,7S)-7-fluoro-5-phenyl-6,7-dihydro-5H-pyrrolo[1,2-b][1,2,4]triazol-2-yl]methanone]
- pKi [2]: 7.37

Compound: O=C(c1nc2n(n1)[C@H](c1ccccc1)C[C@@H]2F)C1(CO)CC1 (racemic) [Example 58, [1-(hydroxymethyl)cyclopropyl]-[rac-(5S,7S)-7-fluoro-5-phenyl-6,7-dihydro-5H-pyrrolo[1,2-b][1,2,4]triazol-2-yl]methanone]
- pKi [2]: 7.54

Compound: O=C(c1nc2n(n1)[C@H](c1ccccc1F)CC2)C1CC1 (racemic) [Example 63, cyclopropyl-[rac-(5S)-5-(2-fluorophenyl)-6,7-dihydro-5H-pyrrolo[1,2-b][1,2,4]triazol-2-yl]methanone]
- pKi [1]: 8.00

Compound: O=C(c1cc2n(n1)[C@H](c1ccccc1)C[C@@H]2F)C1CC1 (racemic) [Example 78, cyclopropyl-[rac-(4S,6S)-4-fluoro-6-phenyl-5,6-dihydro-4H-pyrrolo[1,2-b]pyrazol-2-yl]methanone]
- pKi [1]: 7.70

Compound: N#CC1CC1C(=O)c1nc2n(n1)[C@H](c1ccccc1)C[C@@H]2F (mixture of isomers) [Example 86, 2-[rac-(5S,7S)-7-fluoro-5-phenyl-6,7-dihydro-5H-pyrrolo[1,2-b][1,2,4]triazole-2-carbonyl]-cyclopropanecarbonitrile]
- pKi [1]: 6.80

Compound: [2H][C@]1(Cl)C[C@@H](c2ccccc2)n2nc(C(=O)C3CC3)nc21 (racemic) [Example 119, cyclopropyl-[rac-(5S,7S)-7-chloro-7-deuterio-5-phenyl-5,6-dihydropyrrolo[1,2-b][1,2,4]triazol-2-yl]methanone]
- pKi [1]: 7.44

Compound: [2H][C@@]1(Cl)C[C@@H](c2ccccc2)n2nc(C(=O)C3CC3)nc21 (racemic) [Example 120, cyclopropyl-[rac-(5S,7R)-7-chloro-7-deuterio-5-phenyl-5,6-dihydropyrrolo[1,2-b][1,2,4]triazol-2-yl]methanone]
- pKi [1]: 6.04

Compound: CC(F)(F)[C@@H]1C[C@H](F)c2nc(C(=O)C3CC3)nn21 (racemic) [Example 122, cyclopropyl-[rac-(5S,7S)-5-(1,1-difluoroethyl)-7-fluoro-6,7-dihydro-5H-pyrrolo[1,2-b][1,2,4]triazol-2-yl]methanone]
- pKi [1]: 6.44

Compound: CCC1(C(=O)c2nc3n(n2)[C@H](c2ccccc2)C[C@@H]3F)CC1 (racemic) [Example 125, (1-ethylcyclopropyl)-[rac-(5S,7S)-7-fluoro-5-phenyl-6,7-dihydro-5H-pyrrolo[1,2-b][1,2,4]triazol-2-yl]methanone]
- pKi [1]: 8.40

Compound: O=C(c1nc2n(n1)[C@H](c1ccccc1)C[C@@H]2F)C1CCOCC1 (racemic) [Example 126, [rac-(5S,7S)-7-fluoro-5-phenyl-6,7-dihydro-5H-pyrrolo[1,2-b][1,2,4]triazol-2-yl]-tetrahydropyran-4-yl-methanone]
- pKi [1]: 7.24

Compound: O=C(c1nc2n(n1)[C@H](c1ccccc1)C[C@@H]2F)C1CCCOC1 (mixture of isomers) [Example 127, [rac-(5S,7S)-7-fluoro-5-phenyl-6,7-dihydro-5H-pyrrolo[1,2-b][1,2,4]triazol-2-yl]-tetrahydropyran-3-yl-methanone]
- pKi [1]: 7.80

Compound: O=C(c1nc2n(n1)[C@H](c1ccccc1)C[C@@H]2F)[C@H]1CCCN1 (racemic) [Example 128, [rac-(5S,7S)-7-fluoro-5-phenyl-6,7-dihydro-5H-pyrrolo[1,2-b][1,2,4]triazol-2-yl]-[rac-(2R)-pyrrolidin-2-yl]methanone]
- pKi [1]: 6.19

Compound: CC1(C(=O)c2nc3n(n2)[C@H](c2ccccc2)C[C@@H]3F)CCCO1 (mixture of isomers) [Example 129, (2-methyltetrahydrofuran-2-yl)-[rac-(5S,7S)-7-fluoro-5-phenyl-6,7-dihydro-5H-pyrrolo[1,2-b][1,2,4]triazol-2-yl]methanone]
- pKi [1]: 7.33
